Measurements taken from patent US20250214924A1, “NOVEL COMPOUNDS AND USES THEREOF” (ACTIVON CO., LTD., priority 2022, published 2025).

How the values were obtained:
[1] = test system: human keratinocytes (HaCaT cells); test: WST-1 assay, cytotoxicity / skin irritation (Experimental Example 1); format: cell-based; conditions: for Cell Viability: 24 hours, HaCaT cells, untreated = 100%
Experimental: To confirm whether the compound prepared in Embodiment 1 causes toxicity in skin cells and induces skin irritation, a WST-1 assay was conducted, and the results are shown in Table 1 and FIG. 2 below. In the experiment, human keratinocytes (HaCaT cells) were seeded at a density of 1×10^4 cells per well in a 96-well plate with DMEM (Dulbecco's Modified Eagle Medium) containing 10% FBS (Fetal Bovine Serum) and 1% Antibiotic-Antimycotic, and incubated for 24 hours in a constant temperature chamber at 37° C. with 5% CO2. Subsequently, the cells were treated with the compound prepared in Embodiment 1 and incubated for an additional 24 hours.

HaCaT cells = test: antioxidant effect against H2O2 oxidative toxicity (Experimental Example 2); format: cell-based, human; conditions: for Number of fluorescent cells (Cell number): untreated 15, H2O2 only 255
[2] = test system: H2O2-induced reactive oxygen species generation; test: DCF-DA staining, H2O2-induced reactive oxygen species generation (Experimental Example 3); format: cell-based; conditions: for Number of fluorescent cells (Cell number): DCF-DA, untreated 15, H2O2 only 255
Experimental: To investigate the inhibitory effect of the compound prepared in Embodiment 1 on H2O2-induced reactive oxygen species generation, DCF-DA staining was performed, and the results are shown in Table 3, FIG. 4, and FIG. 5 below. In the experiment, […] were seeded at a density of 2×10^5 cells per dish in a 35 pi dish and incubated for 24 hours. Subsequently, the cells were treated with the compound prepared in Embodiment 1 and further incubated for 24 hours. After 10 minutes of loading with 5 mM DCF-DA, the cells were examined under a fluorescence microscope, and the number of DCF-DA fluorescent cells was counted using Image J.

[3] = various concentrations, compared to positive control group (H2O2 treatment)

Compound	Cell Viability ([1]; 5 uM) [%]	change in cell viability ([1]; 10 μM treatment)	Cell Viability ([1]; 10 uM) [%]	toxicity to Keratinocyte (HaCaT) cells ([1]; concentrations of 5 and 10 μM)	Number of fluorescent cells (Cell number) (HaCaT cells; H2O2 1 mM + substance 5 uM)	Number of fluorescent cells (Cell number) (HaCaT cells; H2O2 1 mM + substance 10 uM)	increase in reactive oxygen species caused by H2O2 treatment (HaCaT cells; [3])	Number of fluorescent cells (Cell number) ([2]; H2O2 + substance 5 uM)	Number of fluorescent cells (Cell number) ([2]; H2O2 + substance 10 uM)	increase in reactive oxygen species caused by H2O2 treatment [2, 3]
O=C(/C=C/c1ccc(O)c(O)c1)OCc1ccc(OC(=O)/C=C/c2ccc(O)c(O)c2)cc1 [Embodiment 1, 4-(((E)-3-(3,4-dihydroxyphenyl)acryloyl)oxy)benzyl (E)-3-(3,4-dihydroxyphenyl)acrylate]	95.9	cell viability increased	118.9	did not show toxicity	60	42	significantly reduced	60	42	significantly reduced
O=C(O)/C=C/c1ccc(O)c(O)c1 [Caffeic acid, reference compound]						250			250	
O=C1O[C@H]([C@@H](O)CO)C(O)=C1O [Ascorbic acid, reference compound]						170			170	
